The results in this text go back to US12522594B2, “2-heteroaryl-3-oxo-2,3-dihydropyridazine-4-carboxamides for the treatment of cancer” (Deutsches Krebsforschungszentrum, priority 2017, dated 2026).

Structures are written as SMILES.

Experiment [1] deals with T1, AHR (Homo sapiens, UniProt P35869).
T1 sequence (P35869 11-848): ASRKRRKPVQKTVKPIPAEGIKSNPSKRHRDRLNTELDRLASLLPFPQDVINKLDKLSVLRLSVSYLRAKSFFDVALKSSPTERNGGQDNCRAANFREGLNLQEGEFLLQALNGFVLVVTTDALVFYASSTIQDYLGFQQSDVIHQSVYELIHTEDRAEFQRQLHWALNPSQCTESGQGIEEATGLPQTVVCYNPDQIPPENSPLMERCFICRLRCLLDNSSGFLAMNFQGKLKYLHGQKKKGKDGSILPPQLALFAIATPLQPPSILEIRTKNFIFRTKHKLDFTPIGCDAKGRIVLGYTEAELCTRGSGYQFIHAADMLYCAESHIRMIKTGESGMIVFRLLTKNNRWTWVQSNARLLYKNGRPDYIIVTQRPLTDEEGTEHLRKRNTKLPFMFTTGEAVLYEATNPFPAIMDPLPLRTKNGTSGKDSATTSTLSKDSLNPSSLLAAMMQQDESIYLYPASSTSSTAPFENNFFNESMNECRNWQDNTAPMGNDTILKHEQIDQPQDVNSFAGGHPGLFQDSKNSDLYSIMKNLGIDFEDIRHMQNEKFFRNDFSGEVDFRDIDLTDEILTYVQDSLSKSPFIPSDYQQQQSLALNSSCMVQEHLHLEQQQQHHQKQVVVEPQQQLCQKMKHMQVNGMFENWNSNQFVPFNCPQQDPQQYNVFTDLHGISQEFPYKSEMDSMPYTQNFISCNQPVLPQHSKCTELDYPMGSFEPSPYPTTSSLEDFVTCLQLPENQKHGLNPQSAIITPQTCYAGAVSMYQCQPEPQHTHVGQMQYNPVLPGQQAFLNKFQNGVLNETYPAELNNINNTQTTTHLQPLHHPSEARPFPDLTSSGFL
As to the kind of experiment: In vitro assay 1: antagonism in human cell line (transactivation assay, U87 cells prestimulated with kynurenic acid, DRE firefly luciferase reporter). The format is cell-based. Further details: host or cells: U87 glioblastoma cells, stably transfected with DRE firefly luciferase and renilla reporter constructs. The following applies: 150 uM kynurenic acid, 20 hours, read-out: Assay 1: AHR-luc Hum Antagonism IC50. The procedure, abridged:
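U87 glioblastoma cells with endogenous AHR, stably carrying a DRE-driven firefly luciferase reporter and a constitutive renilla reporter. Cells prestimulated with the AHR agonist kynurenic acid before compound addition; data normalized to positive and negative controls.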
For orientation: In a reporter assay the amount or activity of a reporter protein is the signal.

In experiment [2] the target is T1, AHR. Briefly: In vitro assay 2: agonism in human cell line (transactivation assay, U87 cells, DRE firefly luciferase reporter). The experiment is classed as cell-based. Further details: host or cells: U87 glioblastoma cells, stably transfected with DRE firefly luciferase and renilla reporter constructs. The following applies: no kynurenic acid, 20 hours, read-out: Assay 2: AHR-luc Hum Agonism IC50. The procedure, abridged:
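U87 glioblastoma cells with endogenous AHR, stably carrying DRE-driven firefly luciferase and constitutive renilla reporters. 300 uM kynurenic acid served as positive activation control; data normalized to positive and negative controls.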

In general, IC50 refers to the concentration needed to halve the response being measured. Consider `C[C@@H](NC(=O)c1cc(-c2ccc(OC(F)(F)F)cc2)nn(-c2cnsc2)c1=O)C(C)(C)O` [Example 327, N-[(2R)-3-Hydroxy-3-methylbutan-2-yl]-3-oxo-2-(1,2-thiazol-4-yl)-6-[4-(trifluoromethoxy)phenyl]-2,3-dihydropyridazine-4-carboxamide], for which the figures for the IC50 at AHR [1] and on AHR [2] were 0.00258 µM and greater than 20 µM, respectively.

In the case of `C[C@@H](CO)NC(=O)c1cc(-c2ccc(C(F)(F)F)cn2)nn(-c2cccnc2)c1=O` [Example 345, N-[(2S)-1-Hydroxypropan-2-yl]-3-oxo-2-(pyridin-3-yl)-6-[5-(trifluoromethyl)pyridin-2-yl]-2,3-dihydropyridazine-4-carboxamide], the figures for the IC50 at AHR [1] and at AHR [2] were 0.0553 µM and greater than 20 µM, respectively.

`Cn1cc(-n2nc(-c3ccc(C(F)(F)F)cc3)cc(C(=O)N[C@@H]3CCC[C@@H]3O)c2=O)cn1` [Example 239, N-[(1R,2S)-2-Hydroxycyclopentyl]-2-(1-methyl-1H-pyrazol-4-yl)-3-oxo-6-[4-(trifluoromethyl)phenyl]-2,3-dihydropyridazine-4-carboxamide]: the IC50 was 0.01 µM on AHR [1] and greater than 20 µM at AHR [2].

Take `C[C@@H](CO)NC(=O)c1cc(-c2ccc(C(F)(F)F)cc2)nn(-c2cnsc2)c1=O` [Example 205, N-[(2S)-1-Hydroxypropan-2-yl]-3-oxo-2-(1,2-thiazol-4-yl)-6-[4-(trifluoromethyl)phenyl]-2,3-dihydropyridazine-4-carboxamide]: the IC50 on AHR [1] is 0.00106 µM; at AHR [2] it was greater than 20 µM.

Take `O=C(N[C@@H]1CCCC[C@@H]1O)c1cc(-c2ccc(Cl)cc2)nn(-c2cccnc2)c1=O` (relative stereo) [Example 133, 6-(4-Chlorophenyl)-N-[(cis)-2-hydroxycyclohexyl]-3-oxo-2-(pyridin-3-yl)-2,3-dihydropyridazine-4-carboxamide]: the IC50 on AHR [1] is 0.00752 µM; on AHR [2], greater than 20 µM.

Regarding `CC(NC(=O)c1cc(-c2ccc(Cl)cc2)nn(-c2cccnc2)c1=O)C(O)C(F)(F)F` (single isomer, unassigned) [Example 297, 6-(4-Chlorophenyl)-3-oxo-2-(pyridin-3-yl)-N-(4,4,4-trifluoro-3-hydroxybutan-2-yl)-2,3-dihydropyridazine-4-carboxamide], the IC50 on AHR [1] was 0.00149 µM; on AHR [2], greater than 20 µM.

For the compound `C[C@H](NC(=O)c1cc(-c2ccc(C(F)(F)F)cc2)nn(-c2cccnc2)c1=O)C(C)(C)O` [Example 226, N-[(2S)-3-Hydroxy-3-methylbutan-2-yl]-3-oxo-2-(pyridin-3-yl)-6-[4-(trifluoromethyl)phenyl]-2,3-dihydropyridazine-4-carboxamide], the figures for the IC50 at AHR [1] and on AHR [2] were 0.00591 µM and greater than 20 µM, respectively.

In the case of `O=C(N[C@H]1COC[C@@H]1O)c1cc(-c2ccc(Cl)cc2)nn(-c2cncc(F)c2)c1=O` (single isomer, unassigned; enantiomer 1) [Example 155, 6-(4-Chlorophenyl)-2-(5-fluoropyridin-3-yl)-N-[(trans)-4-hydroxytetrahydrofuran-3-yl]-3-oxo-2,3-dihydropyridazine-4-carboxamide, Enantiomer 1], the IC50 is 0.0905 µM at AHR [1] and greater than 20 µM at AHR [2].

Turning to `O=C(NC[C@H](O)C(F)(F)F)c1cc(-c2ccc(Cl)cc2)nn(-c2cnn(C(F)F)c2)c1=O` [Example 256, 6-(4-Chlorophenyl)-2-[1-(difluoromethyl)-1H-pyrazol-4-yl]-3-oxo-N-[(2S)-3,3,3-trifluoro-2-hydroxypropyl]-2,3-dihydropyridazine-4-carboxamide], the values for the IC50 at AHR [1] and at AHR [2] were 0.026 µM and greater than 20 µM, respectively.

`Cn1cc(-n2nc(-c3ccc(Cl)cc3)cc(C(=O)N[C@H](CO)C(N)=O)c2=O)cn1` [Example 289, N-[(2R)-1-Amino-3-hydroxy-1-oxopropan-2-yl]-6-(4-chlorophenyl)-2-(1-methyl-1H-pyrazol-4-yl)-3-oxo-2,3-dihydropyridazine-4-carboxamide]: the IC50 was 0.875 µM at AHR [1] and greater than 20 µM on AHR [2].

For `CC(C)(O)C(NC(=O)c1cc(-c2ccc(OC(F)(F)F)cc2)nn(-c2cccnc2)c1=O)C(F)(F)F` (single isomer, unassigned; enantiomer 1) [Example 136, 3-Oxo-2-(pyridin-3-yl)-N-[1,1,1-trifluoro-3-hydroxy-3-methylbutan-2-yl]-6-[4-(trifluoromethoxy)phenyl]-2,3-dihydropyridazine-4-carboxamide, Enantiomer 1], the values for the 50% inhibitory concentration (IC50) at AHR [1] and on AHR [2] were 0.0604 µM and greater than 20 µM, respectively.

In the case of `COC(=O)[C@@H](CO)NC(=O)c1cc(-c2ccc(Cl)cc2)nn(-c2cccnc2)c1=O` [Example 274, Methyl N-{[6-(4-chlorophenyl)-3-oxo-2-(pyridin-3-yl)-2,3-dihydropyridazine-4-yl]carbonyl}-D-serinate], the 50% inhibitory concentration (IC50) on AHR [1] is 0.111 µM; at AHR [2], greater than 20 µM.

In the case of `O=C(N[C@H](CO)C(F)(F)F)c1cc(-c2ccc(Cl)cc2)nn(-c2cncc(F)c2)c1=O` [Example 100, 6-(4-Chlorophenyl)-2-(5-fluoropyridin-3-yl)-3-oxo-N-[(2R)-1,1,1-trifluoro-3-hydroxypropan-2-yl]-2,3-dihydropyridazine-4-carboxamide], the IC50 at AHR [1] was 0.0127 µM; at AHR [2], greater than 20 µM.

`C[C@]1(O)CCC[C@H]1NC(=O)c1cc(-c2ccc(OC(F)(F)F)cc2)nn(-c2cccnc2)c1=O` (single isomer, unassigned) [Example 329, N-[(cis)-2-hydroxy-2-methylcyclopentyl]-3-oxo-2-(pyridin-3-yl)-6-[4-(trifluoromethoxy)phenyl]-2,3-dihydropyridazine-4-carboxamide]: the results for the IC50 at AHR [1] and on AHR [2] were 0.0294 µM and greater than 20 µM, respectively.

For `CC(C)[C@@H](CO)NC(=O)c1cc(-c2ccc(C(F)(F)F)nc2)nn(-c2cncc(F)c2)c1=O` [Example 337, 2-(5-Fluoropyridin-3-yl)-N-[(2S)-1-hydroxy-3-methylbutan-2-yl]-3-oxo-6-[6-(trifluoromethyl)pyridin-3-yl]-2,3-dihydropyridazine-4-carboxamide], the IC50 on AHR [1] was 0.0208 µM; on AHR [2], greater than 20 µM.

In the case of `COC[C@@H](CO)NC(=O)c1cc(-c2ccc(Cl)cc2)nn(-c2cnn(C)c2)c1=O` [Example 30, 6-(4-Chlorophenyl)-N-[(2R)-1-hydroxy-3-methoxypropan-2-yl]-2-(1-methyl-1H-pyrazol-4-yl)-3-oxo-2,3-dihydropyridazine-4-carboxamide], the IC50 at AHR [1] was 0.0608 µM; at AHR [2], greater than 20 µM.

As for `O=C(N[C@H]1CCC[C@H]1O)c1cc(-c2ccc(Cl)cc2)nn(-c2ccnnc2)c1=O` [Example 167, 3-(4-Chlorophenyl)-N-[(1S,2R)-2-hydroxycyclopentyl]-6-oxo-6H-1,4′-bipyridazine-5-carboxamide], the IC50 was 0.239 µM at AHR [1] and greater than 20 µM at AHR [2].

Take `Cn1cc(-n2nc(-c3ccc(Cl)cc3)cc(C(=O)NC[C@H](O)CF)c2=O)cn1` [Example 270, 6-(4-Chlorophenyl)-N-[(2S)-3-fluoro-2-hydroxypropyl]-2-(1-methyl-1H-pyrazol-4-yl)-3-oxo-2,3-dihydropyridazine-4-carboxamide]: the IC50 at AHR [1] is 0.0645 µM; at AHR [2], greater than 20 µM.

As for `Cn1cc(-n2nc(-c3ccc(OC(F)F)cc3)cc(C(=O)NC(C(C)(C)O)C(F)(F)F)c2=O)cn1` (single isomer, unassigned) [Example 307, 6-[4-(Difluoromethoxy)phenyl]-2-(1-methyl-1H-pyrazol-4-yl)-3-oxo-N-(1,1,1-trifluoro-3-hydroxy-3-methylbutan-2-yl)-2,3-dihydropyridazine-4-carboxamide], the figures for the IC50 on AHR [1] and at AHR [2] were 0.0739 µM and greater than 20 µM, respectively.

As for `O=C(N[C@H]1CCC[C@@H]1O)c1cc(-c2ccc(C(F)F)nc2)nn(-c2cccnc2)c1=O` [Example 165, 6-[6-(Difluoromethyl)pyridin-3-yl]-N-[(1S,2S)-2-hydroxycyclopentyl]-3-oxo-2-(pyridin-3-yl)-2,3-dihydropyridazine-4-carboxamide], the results for the IC50 at AHR [1] and on AHR [2] were 0.209 µM and greater than 20 µM, respectively.

For `C[C@H](NC(=O)c1cc(-c2ccc(Cl)cc2)nn(-c2cnn(C)c2)c1=O)C(C)(C)O` [Example 316, 6-(4-Chlorophenyl)-N-[(2S)-3-hydroxy-3-methylbutan-2-yl]-2-(1-methyl-1H-pyrazol-4-yl)-3-oxo-2,3-dihydropyridazine-4-carboxamide], the IC50 is 0.0206 µM on AHR [1] and greater than 20 µM on AHR [2].
